Test results published in patent US11661437B2, “Steroid derivative regulators, method for preparing the same, and uses thereof” (priority 2018, dated 2023).

Tests used:
GABA-A receptor = assay: 35S-TBPS binding assay on rat cerebral cortex cell membrane; design: species or system Sprague-Dawley rat; conditions: 2 nM 35S-TBPS, GABA added, read-out: 35S-TBPS bindng test, IC50 on inhibiting the TBPS binding activity
Procedure, shortened: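 Male Sprague-Dawley rat cortical membranes in PBS were preincubated 5 min at 25 °C with compound (8-point 3-fold series […], 1% DMSO), then with GABA ([…]). 2 nM 35S-TBPS was added for 20 h at 4 °C, followed by GF/C filtration and scintillation counting. % inhibition was normalised to DMSO and 10 μM reference controls, with IC50 from a 4-parameter fit.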

CD-1 mice = assay: In vivo pharmacodynamic test in the PTZ-induced epilepsy model in mice; conditions: 3 mpk p.o., PTZ 120 mg/kg s.c., 30 min observation
Procedure: The PTZ-induced epilepsy model in CD-1 mice was established, and the antiepileptic effect of the compounds of Example 5 and Example 23 was evaluated using this model.
30 male CD-1 mice were purchased from Beijing Vital River Laboratory Animal Technology Co. Ltd. The test animals were adapted at the animal room in the third building of Shanghai ChemPartner Co., Ltd for 7 days before the test. The average body weight of the animals on the test day was 32.2±0.2 grams. Feeding environment: 5 animals/cage, room temperature 23±2° C., 12/12 hours of light and dark cycle, free access to food and water.
1) Vehicle/PTZ: 0.5% CMC-Na+1% Tween-80 (10 ml/kg, p.o.), administrated 0.5 hr before the PTZ administration; PTZ ([…], s.c.), administrated before the test;
2) 3 mg/kg of the compounds of Examples/PTZ: the compounds of Example 5 and Example 23 (3 mg/kg, 10 ml/kg, p.o.), administrated 0.5 hr before the PTZ administration; PTZ ([…], s.c.), administrated before the test.
3) The compounds of Example 5 and Example 23 were administrated respectively 1 hour before the PTZ administration, or 0.5% CMC-NA+1% Tween-80, the compounds of Example 5 and Example 23 were administrated respectively 0.5 hour before the PTZ administration;
4) PTZ (120 mg/kg) was administrated subcutaneously before the test observation, and this time point was recorded as the observation start point;
6) The possible side effects induced by the drug after the administration were observed and recorded, which can be divided into four levels: • None: normal • Mild sedation • Moderate sedation • Severe sedation
The mice were randomly grouped, marked and weighed; 10 mice per group. The test compound was administrated orally at an administration volume of 10 mL/kg 30-60 minutes before the PTZ administration.
PTZ (120 mg/kg) was administrated subcutaneously before the test observation, and this time point was recorded as the observation start point; after the administration of PTZ, the animal was immediately placed in the observation box and observed for 30 minutes, and the followings were recorded: a) the incubation period of the first clonic seizure, b) the incubation period of the first generalized tonic seizure, c) the number of clonic seizures, d) the number of generalized tonic seizures, e) the time when the animal died.
All measurement data were expressed as Mean±SEM, and analysed with Prism 6.0 statistical software.

SMILES	IC50 (GABA-A receptor)	Incubation period of the clonic seizure Mean ± SEM (CD-1 mice)	Incubation period of the generalized tonic seizure Mean (CD-1 mice)	Mortality rate (CD-1 mice)	Number of clonic seizures Mean (CD-1 mice)	Number of generalized tonic seizures Mean (CD-1 mice)	Time when the animal died Mean (CD-1 mice)
C[C@@]1(O)CC[C@@]2(F)[C@H](CC[C@H]3[C@@H]4CC[C@H](C(=O)Cn5cc(C#N)cn5)[C@@]4(C)CC[C@@H]32)C1 [Example 2, 1-(2-((3R,5R,8S,9S,10R,13S,14S,17S)-10-Fluoro-3-hydroxy-3,13-dimethylhexadecahydro-1H-cyclopenta[a]phenanthren-17-yl)-2-oxoethyl)-1H-pyrazole-4-carbonitrile]	11.8 nM	–	–	–	–	–	–
C[C@@]1(O)CC[C@@]2(F)[C@H](CC[C@H]3[C@@H]4CC[C@H](C(=O)Cn5ccc(C(F)(F)F)n5)[C@@]4(C)CC[C@@H]32)C1 [Example 5, 1-((3R,5R,8S,9S,10R,13S,14S,17S)-10-Fluoro-3-hydroxy-3,13-dimethylhexadecahydro-1H-cyclopenta[a]phenanthren-17-yl)-2-(3-(trifluoromethyl)-1H-pyrazol-1-yl)ethan-1-one]	8.3 nM	644.5 ± 122.0 s	1576.7 ± 108.8 s	40%	1.8 ± 0.3	0.4 ± 0.2	1623.0 ± 105.5 s
C[C@@]1(O)CC[C@@]2(F)[C@H](CC[C@H]3[C@@H]4CC[C@H](C(=O)CNc5ccc(F)cc5)[C@@]4(C)CC[C@@H]32)C1 [Example 23, 1-((3R,5R,8S,9S,10R,13S,14S,17S)-10-Fluoro-3-hydroxy-3,13-dimethylhexadecahydro-1H-cyclopenta[a]phenanthren-17-yl)-2-((4-fluorophenyl)amino)ethan-1-one]	30.9 nM	366.5 ± 21.1 s	1519.9 ± 117.9 s	40%	1.8 ± 0.2	0.4 ± 0.2	1527.7 ± 114.6 s
